± gives the expanded uncertainty stated by the source.
Experiment: excess molar enthalpy (molar enthalpy of mixing); xn = mol fraction of the nth substance listed
Conditions: 101.33 kPa, Gas, Flow calorimetry, x1 = 0.5

SMILES: N#N [nitrogen] + O
- excess molar enthalpy (373.15 K): 0.0129 ± 0.000382 kcal/mol
- excess molar enthalpy (383.15 K): 0.0113 ± 0.000359 kcal/mol
- excess molar enthalpy (393.15 K): 0.0101 ± 0.000359 kcal/mol
- excess molar enthalpy (403.15 K): 0.00891 ± 0.000359 kcal/mol
- excess molar enthalpy (413.15 K): 0.00803 ± 0.000359 kcal/mol
- excess molar enthalpy (423.15 K): 0.00722 ± 0.000335 kcal/mol
- excess molar enthalpy (433.15 K): 0.00664 ± 0.000335 kcal/mol
- excess molar enthalpy (443.15 K): 0.006 ± 0.000335 kcal/mol
- excess molar enthalpy (453.15 K): 0.00547 ± 0.000335 kcal/mol
- excess molar enthalpy (463.15 K): 0.00504 ± 0.000335 kcal/mol
- excess molar enthalpy (473.15 K): 0.00471 ± 0.000335 kcal/mol
- excess molar enthalpy (483.15 K): 0.0043 ± 0.000335 kcal/mol
- excess molar enthalpy (493.15 K): 0.00402 ± 0.000335 kcal/mol

SMILES: O=O [oxygen] + O
- excess molar enthalpy (373.15 K): 0.0132 ± 0.000406 kcal/mol
- excess molar enthalpy (383.15 K): 0.0115 ± 0.000382 kcal/mol
- excess molar enthalpy (393.15 K): 0.0103 ± 0.000382 kcal/mol
- excess molar enthalpy (403.15 K): 0.00908 ± 0.000382 kcal/mol
- excess molar enthalpy (413.15 K): 0.00822 ± 0.000382 kcal/mol
- excess molar enthalpy (423.15 K): 0.00741 ± 0.000382 kcal/mol
- excess molar enthalpy (433.15 K): 0.00679 ± 0.000359 kcal/mol
- excess molar enthalpy (443.15 K): 0.00619 ± 0.000359 kcal/mol
- excess molar enthalpy (453.15 K): 0.00564 ± 0.000359 kcal/mol
- excess molar enthalpy (463.15 K): 0.00516 ± 0.000359 kcal/mol
- excess molar enthalpy (473.15 K): 0.00483 ± 0.000359 kcal/mol
- excess molar enthalpy (483.15 K): 0.00449 ± 0.000359 kcal/mol
- excess molar enthalpy (493.15 K): 0.00413 ± 0.000359 kcal/mol

Source: the NIST ThermoML archive (doi:10.1016/j.jct.2008.12.009)
